Measurements published in patent publication US7709613B2, “Rhenium-188 and rhenium-186 for treatment of tumors expressing a Na+/I− symporter” (priority 2002, dated 2010).
Where two headings read alike, the source gives them in different places.

What was measured:
[1] = ref. [23]; cited from earlier work
hNIS = target: T1, hNIS (Homo sapiens, UniProt Q92911); experiment: Comparative 125I and 188Re uptake into hNIS-transfected and non-transfected MDCK cells; type: cell-based; conditions: for Km: hNIS-transfected MDCK cells, Lineweaver-Burk plot, 4-min initial rates, read-out: Km for influx
T1 construct: expressed in transfected cells; host or cells: MDCK (Madin-Darby canine kidney) cells, hNIS in pcDNA 3.1
T1 sequence (Q92911 1-643): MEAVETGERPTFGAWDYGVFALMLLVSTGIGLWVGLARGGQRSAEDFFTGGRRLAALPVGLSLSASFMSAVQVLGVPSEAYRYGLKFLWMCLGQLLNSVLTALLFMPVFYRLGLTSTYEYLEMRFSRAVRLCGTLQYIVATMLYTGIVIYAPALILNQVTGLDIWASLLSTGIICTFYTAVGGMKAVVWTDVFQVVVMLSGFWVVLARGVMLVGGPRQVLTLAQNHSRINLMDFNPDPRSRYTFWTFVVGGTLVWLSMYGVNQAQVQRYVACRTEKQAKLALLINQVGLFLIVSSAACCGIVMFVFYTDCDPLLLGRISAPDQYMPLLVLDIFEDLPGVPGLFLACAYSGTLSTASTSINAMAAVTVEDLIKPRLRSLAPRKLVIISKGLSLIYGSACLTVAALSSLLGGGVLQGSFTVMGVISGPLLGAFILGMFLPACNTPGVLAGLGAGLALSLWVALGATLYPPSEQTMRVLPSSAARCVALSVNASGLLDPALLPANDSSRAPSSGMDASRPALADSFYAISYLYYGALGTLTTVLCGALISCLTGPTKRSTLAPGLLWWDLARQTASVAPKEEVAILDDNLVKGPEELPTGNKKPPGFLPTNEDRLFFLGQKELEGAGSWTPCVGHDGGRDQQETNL
Method: Comparative ^125I and ^188Re uptake into the NIS-expressing cells. Both concentration dependence and kinetic experiments for ^125I and ^188ReO4^− in hNIS-transfected (hNIS in pcDNA 3.1 plasmid) and non-transfected MDCK (Madin-Darby canine kidney) cells were performed using the methods of Weiss et al. and Dai et al.. […] A 4-min time point was used to estimate initial rates for kinetic experiments. Saturation kinetics were analyzed by Lineweaver-Burk plot.

rat thyroid NIS = target: T2, rat thyroid NIS (Rattus norvegicus, UniProt Q63008); conditions: ref. [44], cited from earlier work; for Km: actively transported ions
T2 sequence (Q63008 1-618): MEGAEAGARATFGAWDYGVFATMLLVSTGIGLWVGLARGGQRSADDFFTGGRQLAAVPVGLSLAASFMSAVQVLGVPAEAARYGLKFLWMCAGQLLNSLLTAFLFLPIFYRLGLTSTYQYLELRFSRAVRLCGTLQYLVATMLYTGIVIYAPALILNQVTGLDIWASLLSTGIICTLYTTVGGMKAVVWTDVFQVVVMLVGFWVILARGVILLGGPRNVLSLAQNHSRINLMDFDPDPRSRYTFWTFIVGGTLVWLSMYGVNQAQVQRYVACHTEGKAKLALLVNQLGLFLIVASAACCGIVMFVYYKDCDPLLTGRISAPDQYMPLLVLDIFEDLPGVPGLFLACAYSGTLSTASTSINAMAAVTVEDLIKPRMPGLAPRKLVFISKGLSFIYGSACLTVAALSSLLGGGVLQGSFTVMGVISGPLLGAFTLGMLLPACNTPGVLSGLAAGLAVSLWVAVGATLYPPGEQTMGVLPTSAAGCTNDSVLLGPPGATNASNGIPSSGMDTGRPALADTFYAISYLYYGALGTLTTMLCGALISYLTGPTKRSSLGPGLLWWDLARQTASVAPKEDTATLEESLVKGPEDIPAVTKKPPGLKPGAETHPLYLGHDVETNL

[2] = Dosimetry calculations (MIRDOSE 3) for 70-kg reference adult bearing a 2 g tumor; design: species or system human; conditions: using S-values for the whole body
Method: Dosimetry. The self-doses to major organs and tumors from ^131I and ^188Re in humans were calculated using MIRDOSE 3 software (ORNL) applying S-values for a 70-kg reference adult. “S” is an absorbed dose per unit cumulated activity. S-values are tabulated in the Medical Internal Radiation Dose pamphlet #11 published by the Society of Nuclear Medicine. The following formula [26] was used for conversion of time-activity data in mice into time-activity data in humans: % ID human organ=% ID/ganimal organ·(body massaninal/body masshuman)·organ masshuman.
It should be noted that dosimetry calculations in humans were performed with the sole purpose of comparing the therapeutic efficacy and potential damage to the stomach and thyroid from ^131I and ^188Re beta-particles, thus only “self” doses were calculated. […] However, in more comprehensive dosimetry calculations organ cross-irradiation from highly penetrative ^131I gamma-rays should be taken into consideration.

[3] = Safe dose study in healthy mice, 80 days observation, thyroid and stomach histology; type: in vivo; conditions: 1.5 mCi
Method: To establish the safe dose of ^188ReO4^− to treat the NIS-expressing tumors in mice, healthy mice were treated with 1.5 mCi ^188ReO4^− and observed for 80 days. […] After 80 days the animals were sacrificed, their thyroids and stomachs removed and analyzed histologically. FIGS. 3A-3C present the hematoxylin and eosin stained thyroid tissue from a control mouse, a mouse treated with 1.5 mCi ^188ReO4^−, and a mouse treated with 50 μCi ^131I^−. FIGS. 3D-3E show the stomachs from the control mouse and the mouse treated with 1.5 mCi ^188ReO4^−, respectively.

[4] = tested on: NIS-expressing xenografted mammary adenocarcinoma (NAFA cells); type: in vivo, nude mice
Method: Animal model. […] Since erbB-2 (Neu) is one of the better known human breast cancer oncogenes, a mammary tumor cell line (NAFA) induced by oncogenic Neu was used. The NAFA cell line derived from the MMTV-NeuT mouse was grown in DMEM with 10% fetal bovine serum and 1% penicillin-streptomycin. […] Female nude mice (Charles River Laboratories) 4-6 weeks old were injected SC with 10^6 NAFA cells into the left groin.
Biodistribution. […] In order to block mg-NIS in expressing organs and tumor, control animals were injected with the above mixture of isotopes combined with 2 mg NaClO4. […] The % ID/g for each organ was determined, and RIs (% ID/g in the tumor divided by the % ID/g in normal tissue) were calculated.

[5] = tested on: NAFA cells-xenografted tumors; experiment: Treatment of nude mice bearing NAFA cells-xenografted tumors; type: in vivo; conditions: 1.5 mCi followed by 2nd dose of 1.5 mCi one week later; vs untreated tumors
Method: Animal model. To investigate the binding of ^125I and ^188Re to NIS-expressing mammary tumors, a xenografted mammary adenocarcinoma model in nude mice was used. Since erbB-2 (Neu) is one of the better known human breast cancer oncogenes, a mammary tumor cell line (NAFA) induced by oncogenic Neu was used. The NAFA cell line derived from the MMTV-NeuT mouse was grown in DMEM with 10% fetal bovine serum and 1% penicillin-streptomycin. […] Female nude mice (Charles River Laboratories) 4-6 weeks old were injected SC with 10^6 NAFA cells into the left groin. Ten days after injection the tumors reached 0.5-0.7 cm in diameter.
When the tumors reached 0.5-0.7 cm in diameter, the animals were treated with 1.5 mCi ^188ReO4^− followed by a 2nd dose of 1.5 mCi ^188ReO4^− one week later.

NAFA-cells xenografts = experiment: Histological analysis for apoptosis (Apoptag Plus kit) of NAFA-cells xenografts; type: in vivo, nude mice; conditions: 2×1.5 mCi, day 35 post-treatment; vs control tumors
Description: At the completion of the experimental treatment with ^188Re-perrhenate, the animals were sacrificed, their tumors removed, fixed in buffered formaline, cut and analyzed for apoptosis using an Apoptag Plus® kit. Briefly, 3′-OH termini of DNA fragments, which are the hallmark of apoptosis, were labeled with digoxigenin-modified nucleotides by terminal deoxynucleotidyl transferase (TdT). […] The labeled DNA was detected using an anti-digoxigenin antibody, and the detection was performed using a chromagen. As a result the apoptotic cells were stained brown. The results are shown in FIGS. 5A-5B, where apoptotic cells appear lightly stained in the black-and-white image. […] This observation is consistent with the fact that particulate ionizing radiation is known to cause cell death through both apoptotic and necrotic pathways.

FRTL-5 cells = conditions: read-out: Km for ^125I^− influx; cited from earlier work

For [131IH] [^131I^−], which “Actual dose to the thyroid, due to iodine organification” value [1] is on record?
Its value is 1300 rad/mCi.

What about the Whole body dose [1] of the same compound?
The Whole body dose was 0.71 rad/mCi.

For [Na+].[O]=[Re](=[O])(=[O])[O-] [^188ReO4^−, Na perrhenate Na^188ReO4], which Km (hNIS) is on record?
Its Km is 12.6 µM.

Which Km (rat thyroid NIS) does the source give for [O-][Cl+2]([O-])O [ClO3^−] here?
Its Km is 277 µM.

Which Km (rat thyroid NIS) does the source give for O=[N+]([O-])O [NO3^−] here?
The Km was 739 µM.

With [Na+].[O]=[188Re](=[O])(=[O])[O-] [^188ReO4^−, Na perrhenate Na^188ReO4] as the compound, how does the “Concentration gradient in hNIS-transfected in comparison to non-transfected cells” value (hNIS; MDCK cells) read?
Its value is 14 fold.

What about the “Whole body dose relative to ^131I^−” value [2] of the same compound?
The value was about 2 times.

What about the “Damage to normal NIS-containing structures (thyroid, stomach histology)” value ([3]; 80 days, hematoxylin and eosin) of the same compound?
The value was “absence of damage”.

And the “Weight loss or gastrointestinal toxicity” value ([3]; observed for 80 days)?
The value was “No weight loss or other gastrointestinal toxicity”.

And the “Tumor to normal organ ratio (RI)” value ([4]; 20 min, blood)?
The value was 0.41.

What about the “Tumor to normal organ ratio (RI)” value ([4]; 20 min, kidneys) of the same compound?
Its value is 1.22.

What about the “Tumor to normal organ ratio (RI)” value ([4]; 20 min, liver) of the same compound?
The value was 1.27.

What about the “Tumor to normal organ ratio (RI)” value ([4]; 20 min, muscle) of the same compound?
The value was 8.21.

And the “Tumor to normal organ ratio (RI)” value ([4]; 20 min, salivary glands)?
Its value is 1.46.

What about the “Tumor to normal organ ratio (RI)” value ([4]; 20 min, spleen) of the same compound?
The value was 1.39.

And the “Tumor to normal organ ratio (RI)” value ([4]; 20 min, stomach)?
The value was 0.10.

What about the “Tumor to normal organ ratio (RI)” value ([4]; 20 min, thyroid) of the same compound?
Its value is 0.52.

What about the “Tumor to normal organ ratio (RI)” value ([4]; 20 min, tumor) of the same compound?
The value was 1.00.

What about the “Tumor to normal organ ratio (RI)” value ([4]; 2 hr, blood) of the same compound?
The value was 0.54.

And the “Tumor to normal organ ratio (RI)” value ([4]; 2 hr, kidneys)?
The value was 1.40.

What about the “Tumor to normal organ ratio (RI)” value ([4]; 2 hr, liver) of the same compound?
Its value is 1.43.

What about the “Tumor to normal organ ratio (RI)” value ([4]; 2 hr, muscle) of the same compound?
The value was 5.22.

What about the “Tumor to normal organ ratio (RI)” value ([4]; 2 hr, salivary glands) of the same compound?
The value was 0.54.

What about the “Tumor to normal organ ratio (RI)” value ([4]; 2 hr, spleen) of the same compound?
The value was 2.99.

What about the “Tumor to normal organ ratio (RI)” value ([4]; 2 hr, stomach) of the same compound?
The value was 0.08.

What about the “Tumor to normal organ ratio (RI)” value ([4]; 2 hr, thyroid) of the same compound?
The value was 0.25.

What about the “Tumor to normal organ ratio (RI)” value ([4]; 2 hr, tumor) of the same compound?
The value was 1.00.

And the “Tumor to normal organ ratio (RI)” value ([4]; 24 hr, blood)?
Its value is 1.45.

And the “Tumor to normal organ ratio (RI)” value ([4]; 24 hr, kidneys)?
The value was 3.08.

And the “Tumor to normal organ ratio (RI)” value ([4]; 24 hr, liver)?
Its value is 8.00.

And the “Tumor to normal organ ratio (RI)” value ([4]; 24 hr, muscle)?
The value was 12.50.

What about the “Tumor to normal organ ratio (RI)” value ([4]; 24 hr, salivary glands) of the same compound?
The value was 2.85.

What about the “Tumor to normal organ ratio (RI)” value ([4]; 24 hr, spleen) of the same compound?
Its value is 10.00.

And the “Tumor to normal organ ratio (RI)” value ([4]; 24 hr, stomach)?
Its value is 0.17.

What about the “Tumor to normal organ ratio (RI)” value ([4]; 24 hr, thyroid) of the same compound?
Its value is 2.00.

What about the “Tumor to normal organ ratio (RI)” value ([4]; 24 hr, tumor) of the same compound?
The value was 1.00.

What about the Tumor growth [5] of the same compound?
The Tumor growth was “Tumor growth stabilization”.

And the “Apoptotic cells in tumors” value (NAFA-cells xenografts)?
The value was “significantly higher number of apoptotic cells”.

With [I-].[Na+] [^125I^−, sodium iodide, reference compound] as the compound, how does the Km (FRTL-5 cells) read?
Its Km is 30 µM.

What about the Km (hNIS) of the same compound?
The Km was 26.1 µM.

For [O-][Cl+3]([O-])([O-])O [ClO4^−, Na perchlorate, reference compound], which “Effect of co-administered blocking agent on uptake of both isotopes by NIS-expressing organs” value ([4]; 2 mg NaClO4 co-injected, all 3 time points) is on record?
The value was “significantly decreased uptake of both isotopes by the stomach, salivary glands and thyroid”.

For [O]=[Re](=[O])(=[O])[O-] [ReO4^−], which “Blocking of NIS” value (rat thyroid NIS) is on record?
The value was “potent blocking agent for NIS”.
